Test results: the supplement of paper PMC10307832

Experiments:
Assay in all cases: relative viability (nuclei count vs DMSO), 5 days (fraction); higher = more cells survive
[1] = compound: CC1(C)CNc2cc(NC(=O)c3cccnc3NCc3ccncc3)ccc21 [Motesanib] + Cc1cc(Nc2cc(N3CCN(C)CC3)nc(Sc3ccc(NC(=O)C4CC4)cc3)n2)n[nH]1 [Tozasertib] (partner 0.1 µM)
In short: (§1)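 The day after seeding in 1536-well plates, lung cancer cell lines were treated by pin tool with a single drug, or with a fixed anchor-drug dose together with five library-drug doses (not always all listed) in √10 steps. After 5 days, a combined fix-and-stain solution (final 0.05% Triton X-100, 1% formaldehyde, 1 ug/ml Hoechst) was added. Nuclei counted on 4× images gave relative viability as treated counts over vehicle counts, reported as the median of duplicate plates.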

[2] = compound: CC1(C)CNc2cc(NC(=O)c3cccnc3NCc3ccncc3)ccc21 [Motesanib] + CC1(C)CCC(c2ccc(Cl)cc2)=C(CN2CCN(c3ccc(C(=O)NS(=O)(=O)c4ccc(N[C@H](CCN5CCOCC5)CSc5ccccc5)c(S(=O)(=O)C(F)(F)F)c4)cc3)CC2)C1 [Navitoclax] (partner 0.5 µM)
In short: as §1

[3] = compound: CC1(C)CNc2cc(NC(=O)c3cccnc3NCc3ccncc3)ccc21 [Motesanib] + CC(=O)Nc1cccc(-n2c(=O)n(C3CC3)c(=O)c3c(Nc4ccc(I)cc4F)n(C)c(=O)c(C)c32)c1 [Trametinib] (partner 0.02 µM)
In short: as §1

[4] = compound: CC1(C)CNc2cc(NC(=O)c3cccnc3NCc3ccncc3)ccc21 [Motesanib] + COc1cc2c(Oc3ccc(NC(=O)C4(C(=O)Nc5ccc(F)cc5)CC4)cc3F)ccnc2cc1OCCCN1CCOCC1 [Foretinib] (partner 0.25 µM)
In short: as §1

Work on UMC-11 yielded a relative viability ([1]; first compound 0.01 µM) of 0.205, a relative viability ([1]; first compound 0.03162 µM) of 0.213 and a relative viability ([1]; first compound 0.1 µM) of 0.216. It also gave a relative viability ([1]; first compound 0.3162 µM) of 0.207, a relative viability ([1]; first compound 1 µM) of 0.228 and a relative viability ([2]; first compound 0.01 µM) of 0.341. It also gave a relative viability ([2]; first compound 0.03162 µM) of 0.312, a relative viability ([2]; first compound 0.1 µM) of 0.31 and a relative viability ([2]; first compound 0.3162 µM) of 0.302. The relative viability ([2]; first compound 1 µM) was 0.318, the relative viability ([3]; first compound 0.01 µM) was 0.659 and the relative viability ([3]; first compound 0.03162 µM) was 0.94. For the same cell line, the relative viability ([3]; first compound 0.1 µM) was 0.611, the relative viability ([3]; first compound 0.3162 µM) was 0.744 and the relative viability ([3]; first compound 1 µM) was 0.762. The relative viability ([4]; first compound 0.01 µM) was 0.998, the relative viability ([4]; first compound 0.03162 µM) was 1.08 and the relative viability ([4]; first compound 0.1 µM) was 0.985. The relative viability ([4]; first compound 0.3162 µM) was 1.08 and the relative viability ([4]; first compound 1 µM) was 1.2.
